Test results reported in patent US7792665B2, “Method for designing a compound based on the three dimensional structure of phosphoinositide dependent protein kinase 1 (PDK1)” (Medical Research Council, priority 2002, dated 2010).
Numbering of substitutions follows the chain as printed. Where a SMILES comes first, the peptide text is derived from it. [ ]: non-standard residue; d: D form. pT = C[C@@H](OP(=O)(O)O)[C@H](N)C(=O)O

Columns and labels:
PDK1[Q150A] = biological target: T1, PDK1[Q150A] (Homo sapiens, UniProt O15530, Q150A); assay: PDK1 catalytic activity towards T308tide, activation by peptides, PDK1[Q150A]; type: biochemical; set-up: made in house
T1 sequence (O15530 1-556 Q150A): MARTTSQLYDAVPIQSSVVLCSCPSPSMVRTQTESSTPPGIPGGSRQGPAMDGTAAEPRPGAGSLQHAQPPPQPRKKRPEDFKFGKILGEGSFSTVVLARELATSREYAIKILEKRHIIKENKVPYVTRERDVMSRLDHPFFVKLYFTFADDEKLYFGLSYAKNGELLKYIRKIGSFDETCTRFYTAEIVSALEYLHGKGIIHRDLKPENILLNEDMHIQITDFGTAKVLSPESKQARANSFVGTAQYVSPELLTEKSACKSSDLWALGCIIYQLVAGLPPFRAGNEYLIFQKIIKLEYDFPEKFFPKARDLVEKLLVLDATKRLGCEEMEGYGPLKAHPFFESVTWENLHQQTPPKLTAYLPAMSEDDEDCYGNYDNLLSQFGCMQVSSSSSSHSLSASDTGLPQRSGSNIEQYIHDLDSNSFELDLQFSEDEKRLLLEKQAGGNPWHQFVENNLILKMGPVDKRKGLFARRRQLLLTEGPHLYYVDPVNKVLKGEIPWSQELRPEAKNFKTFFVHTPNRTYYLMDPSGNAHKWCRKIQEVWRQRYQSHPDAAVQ
Protocol: (§1) C. Activation of the indicated forms of PDK1 by 56K-pHM and S6K-HM. PDK1 activity was measured using the peptide substrate (T308tide) in the presence of the indicated concentrations of 56K-pHM (closed circles) and S6K-HM (open circles) as described in the methods. Assays were performed in triplicate and similar results obtained in 2 separate experiments. The results are the average—SD for a single experiment.
(§2) The ability of wild type and mutant PDK1 to phosphorylate the synthetic peptide T308tide ([…] ([Biondi et al., 2000]) (SEQ ID NO:108) was carried out in 30 μl assays containing 100 ng of wild type or mutant PDK1, 50 mM Tris/HCl pH 7.5, 0.1% 13-mercaptoethanol, 10 mM MgCl2, 100 μM [32γ P]ATP (200 cpm/pmol), 0.5 μM microcystin-LR, 1 mM T308tide in the presence or absence of the indicated concentrations of the 56K-pHM peptide ([…](P)YVAPSV) (SEQ ID NO:104) or 56K-HM. peptide ([…]) (SEQ ID NO:105). After incubation for 10 min at 30° C., 25 μl of the resultant mixture was spotted into P81 phosphocellulose paper (2×2 cm) and the papers washed and analysed as described previously for assays of MAP kinase. Control assays were carried out in parallel in which either PDK1, or peptide substrate were omitted; these values were always less than 5% of the activity measured in the presence of these reagents. […]

wild type PDK1 [1] = biological target: T2, wild type PDK1 (Homo sapiens, UniProt O15530); assay: Surface plasmon resonance (BiaCore) binding of hydrophobic motif peptides, wild type PDK1; set-up: made in house; host or cells: human embryonic kidney 293 cells (pEBG2T vector); settings: BiaCore
T2 sequence (O15530 1-556): T1 sequence (O15530 1-556 Q150A) with A150Q
Protocol: Binding and activation of wild type and mutant forms of PDK1 to a phosphopeptide derived from the hydrophobic motif of S6K1. The binding of the wild type (wt) PDK1 and indicated mutants to a phosphopeptide comprising the hydrophobic motif of S6K1 (S6K-pHM: […]*YVAPSV, where T* indicates phospho-threonine, SEQ ID NO:104) was analysed by surface plasmon resonance as described in the Materials and Methods.
A. The sensor chip SA was coated with 12RUs of the biotinylated S6K-pHM peptide and the binding was analysed following injection of 270 nM wild type PDK1, PDK1 [T148A] and PDK1 [K76A]. […] (data not shown).
B. As in A. except that binding was analysed over a range of PDK1 concentrations (2-2150 nM). The response level at the steady state binding is plotted versus the log of the PDK1 concentration. The estimated Kd was obtained by fitting the data to a sigmoid curve using Kaleidagraph software.
Binding was analysed in a BiaCore 3000 system (BiaCore AB, Stevenage, UK). Biotinylated S6K-pHM (Biotin-C12-[…](P)YVAPSV) (SEQ ID NO:104) or the non-phosphorylated form of this peptide S6K-HM was bound to an streptavidin-coated Sensor chip (SA) (12 response units, RU). 30 μl of wild type or the indicated mutant GST-PDK1 were injected at a flow rate of 30 μl/min, in buffer HBS-P (10 mM HEPES pH 7.4, 0.15M NaCl, 0.005% (by vol) polysorbate-20) supplemented with 1 mM DTT. Specific interactions between 56K-pHM and PDK1 proteins were obtained between the concentration range of 2-2150 nM PDK1. Steady state binding was determined at each concentration. Dissociation of PDK1 from the phospho-peptide was monitored over a 1 min period. Regeneration of the sensor chip surface was performed with 1{tilde over (0)} μl injections of 0.05% SDS. […] (RUmax=435). For all PDK1 construct tested, the off rates for S6Kp-HM were high in comparison to those of PIFtide binding with the time taken for 50% dissociation to occur for 56K-pHM is 30s compared to 1000s for PIFtide.

wild type PDK1 [2] = biological target: T2, wild type PDK1; assay: PDK1 catalytic activity towards T308tide, activation by peptides, wild type PDK1; type: biochemical; set-up: made in house; settings: T308tide substrate
Protocol: as §1, §2

CC(C)C[C@H](NC(=O)[C@H](Cc1ccccc1)NC(=O)[C@@H](NC(=O)[C@H](CCC(N)=O)NC(=O)[C@H](CC(N)=O)NC(=O)[C@H](C)NC(=O)[C@H](CO)NC(=O)[C@H](CCC(=O)O)NC(=O)[C@@H](N)CO)C(C)C)C(=O)NCC(=O)N[C@@H](Cc1ccccc1)C(=O)N[C@H](C(=O)N[C@@H](Cc1ccc(O)cc1)C(=O)N[C@H](C(=O)N[C@@H](C)C(=O)N1CCC[C@H]1C(=O)N[C@@H](CO)C(=O)N[C@H](C(=O)O)C(C)C)C(C)C)[C@@H](C)OP(=O)(O)O [S6K-pHM] (H-SESANQVFLGF[pT]YVAPSV-OH; N-terminus and C-terminus assumed)
activation of PDK1[Q150A] (PDK1[Q150A]; peptide 0.3 and 1 mM): 2-3 fold
activation of PDK1[Q150A] (PDK1[Q150A]; peptide below 0.1 mM): not significantly activated
time taken for 50% dissociation of PDK1 from peptide (wild type PDK1 [1]; all PDK1 constructs tested): 30 s
lower affinity of wild type PDK1 for peptide in comparison to PIFtide (wild type PDK1 [1]; overall): approximately 100 fold
maximal activation of PDK1 (wild type PDK1 [2]): 5 fold
